System: HeLa cells
Assay: Confocal imaging and colocalization in live HeLa cells
Type: cell-based
Details: for fluorescence at 405/475 nm: LNPs
Experimental: FIGS. 9A-9E: confocal imaging of lipid environments targeted by ONOO^− in live HeLa cells. Cells were seeded into glass microscope dishes, incubated with LNPs (50 μM) and stained with organelle trackers and/or actin dye prior to imaging. LNPs obtained from a 47.5:47.5:5.0 molar ratio of DOTMA, DOPE, and DPPC-TC-ONOO^−. FIG. 9A: cells treated with LNPs, stimulated with IFN-γ/LPS/PMA. Time coarse images acquired upon PMA treatment. FIG. 9B: cells treated with LNPs and 1400 W. FIG. 9C: cells treated with LNPs, then with 1400 W and IFN-γ/LPS/PMA. FIGS. 9D-9E: quantitative colocalization study of cells treated with LNPs and stimulated with IFN-γ/LPS/PMA. Pearson's correlation coefficient (PCC) was calculated for quantitative assessment. Organelle trackers: ER-Tracker™, MitoTracker™, CellLight™ Golgi-RFP, LysoTracker™. Cell cytoskeleton was assessed with CellMask™ Deep Red Actin Tracking Stain. DPPC-TC channel: 405/475 nm. Scale bars=20 μm (FIGS. 9A-9D) or 5 μm (FIG. 9E). With the utility of DPPC-TC-ONOO^− proven in synthetic protocell membranes, incorporation into live HeLa and RAW 264.7 cells was sought, which are relevant to redox-induced stress and have well-recognized pathways for RNS and ROS production. Lipid nanoparticles (LNPs) (˜100 nm in diameter) was used to deliver DPPC-TC-ONOO− into cells. This method circumvented the limited solubility of DPPC-TC-ONOO− due to the relatively hydrophobic butanone-coumarin motif. LNPs were obtained via sonication from 1,2-di-O-octadecenyl-3-trimethylammonium propane (DOTMA), 1,2-dioleoyl-sn-glycero-3-phosphoethanolamine (DOPE), and DPPC-TC-ONOO− (47.5:47.5:5.0 molar ratio), which were hydrated with a 300 mM sucrose solution. DOTMA and DOPE were chosen as the carrier lipids due to their cationic/zwitterionic natures, which has been postulated to enhance uptake through the cell membrane. The impact of different LNP compositions and incubation times on the cellular incorporation of DPPC-TC-ONOO^− was assessed. […] Specifically, LNPs containing greater than 10 mol % DPPC-TC-ONOO− were considerably more heterogenous in size (up to […] observed, in contrast to ˜100 nm) and nonuniform in vesicle lamellarity. Those with less than 4 mol % DPPC-TC-ONOO− led to insufficient fluorescence signal. To balance these counteracting factors, 5 mol % DPPC-TC-ONOO− was used, with 47.5 mol % DOTMA and DOPE, each. In these initial assays, cells were incubated with LNPs for up to 15 hours to complete the uptake and intracellular localization of DPPC-TC-ONOO−. Shorter incubation times (3-to-5 hours) led to its uptake but not subcellular localization. […] However, high serum concentration in DMEM caused interference between LNPs and serum-protein, resulting in aggregate formation as observed by microscopy. To overcome this obstacle, LNPs (50 μM) were used in a mixture of 2/3 volumetric ratio of sucrose solution and Opti-MEM™, a reduced serum medium known to increase the efficiency of lipofection. […] For a physiologically relevant stress model, the standard stimulation condition involving IFN-γ/LPS/PMA was employed. Treatment of cells with IFN-γ/LPS leads to the endogenous production of nitric oxide and PMA provokes increased levels of superoxide. These two reactive species combine to form peroxynitrite, as described elsewhere herein. […] The intracellular redox selectivity of DPPC-TC-ONOO^− was also assessed using N-(3-(aminomethyl)benzyl)-acetamidine, known as 1400 W, which inhibits the production of NO· by irreversibly binding to iNOS. […] To determine whether DPPC-TC-ONOO^− localizes and functions at a specific subcellular compartment in HeLa, a comprehensive colocalization study was performed with dyes specific for lipid-rich and membrane-enclosed organelles, including the ER, mitochondrion, Golgi apparatus, and lysosome (FIGS. 9D-9E). In addition, actin stain was used to gain a visual insight into the cytoskeletal structure of the whole cell. […]

SMILES: CCCCCCCCCCCCCCCC(=O)OCC(COP(=O)([O-])OCC[N+](C)(C)Cc1cn(-c2cc3ccc(OC(=O)Oc4ccc(CCC(=O)C(F)(F)F)cc4)cc3oc2=O)nn1)OC(=O)CCCCCCCCCCCCCCC (racemic) [DPPC-TC-ONOO^−]
- signal in the DPPC-TC channel (1400 W only or 1400 W and IFN-γ/LPS/PMA): no observable signal
- Pearson's correlation coefficient (PCC) (DPPC-TC signal vs ER-Tracker Green): 0.938
- fluorescence at 405/475 nm (no stimulation): no observable signal
- fluorescence at 405/475 nm (stimulation with IFN-γ/LPS/PMA): substantial increase in fluorescence
- colocalization correlation (dyes specific for Golgi, mitochondria, and lysosomes): less significant correlation
- time point at which intracellular fluorescence was observable upon PMA addition (post IFN-γ/LPS stimulation, earliest possible image acquisition time): 3 min
